The text below walks through data of ChEMBL document CHEMBL1133901, “Synthesis and potassium channel opening activity of substituted 10H-benzo[4,5]furo[3,2-b]indole-and 5,10-dihydro-indeno[1,2-b]indole-1-carboxylic acids” (Bioorg Med Chem Lett, 2001).

As a reminder, the IC50 is the concentration needed to halve the response being measured. Read a low IC50 as greater potency in that assay.

For one test, the species on record is Rattus norvegicus. The test is described as follows: Concentration that relaxed KCl-induced contractions in rat aortic rings by 50%. The format is functional. The following applies: Aorta.
As to `CC1(C)c2ccc([N+](=O)[O-])cc2-c2[nH]c3c(C(=O)O)cccc3c21`, the IC50 is 17.2 µM.

In turn, `O=C(O)c1cccc2c1[nH]c1c3cc(Br)ccc3oc21` showed an IC50 of 118 µM. Compound `O=C(O)c1cccc2c1Cc1c-2[nH]c2ccc(Br)cc12` gave an IC50 of 109 µM. For `O=C(O)c1cccc2c3c([nH]c12)-c1cc(Br)ccc1C3`, the midpoint of inhibition, the IC50, lay at 210 µM.

The species entered for the next test is Rattus norvegicus. The test is described as follows: Concentration that relaxed KCl-induced contractions in rat detrusor strips by 50%.
Conditions: not given
Format: functional.
On to `CC1(C)c2ccc([N+](=O)[O-])cc2-c2[nH]c3c(C(=O)O)cccc3c21`, for which the IC50 was 5.2 µM. `O=C(O)c1cccc2c1[nH]c1c3cc(I)ccc3oc21`: the half-maximal inhibitory concentration (IC50) was determined as 6.1 µM. On the same count and under the same terms, for `O=C(O)c1cccc2c1Cc1c-2[nH]c2ccc(I)cc12` the value was 10.1 µM.

Turning to `O=C(O)c1cccc2c1Cc1c-2[nH]c2ccc(OC(F)(F)F)cc12`, the IC50 was 15.4 µM. Still for that read-out and setting: for `O=C(O)c1cccc2c1Cc1c-2[nH]c2ccc(Cl)cc12` the value was 22.6 µM; for `Cn1c2c(C(=O)O)cccc2c2oc3ccc(Br)cc3c21`, over 30 µM. `O=C(O)c1cccc2c1[nH]c1c3cc(Cl)ccc3oc21` came in with an IC50 of 5.8 µM. On the same count and under the same terms, for `O=Cc1cccc2c1[nH]c1c3cc(Br)ccc3oc21` the value was over 30 µM; for `O=C(O)c1cccc2c1[nH]c1c3cc(Br)ccc3oc21`, 15.1 µM; for `COC(=O)c1cccc2c1[nH]c1c3cc(Br)ccc3oc21`, over 30 µM.

`NS(=O)(=O)c1ccc2[nH]c3c(c2c1)Cc1c(C(=O)O)cccc1-3` registered an IC50 of over 30 µM. As for `O=C(O)c1cccc2c1Cc1c-2[nH]c2ccc(Br)cc12`, it took 4.4 µM to reach half-maximal inhibition (IC50). `O=C(O)c1cccc2c1[nH]c1c3cc([N+](=O)[O-])ccc3oc21`: the half-maximal inhibitory concentration (IC50) was 6.3 µM. On to `NC(=O)c1cccc2c1[nH]c1c3cc(Br)ccc3oc21`, for which the IC50 was over 30 µM. `O=C(O)c1cccc2c1[nH]c1c3ccccc3oc21` came in with an IC50 of 30 µM.
